Reference: patent US20260184708A1, “PYRIDAZINONES AND METHODS OF USE THEREOF” (GFB (ABC), LLC, priority 2017, published 2026)
Read-outs that look alike come from different tables or passages of the source.

Target: T1, TRPC5 (Homo sapiens, UniProt Q9UL62)
T1 construct: expressed in transfected cells; host or cells: HEK 293
T1 sequence (Q9UL62 1-973): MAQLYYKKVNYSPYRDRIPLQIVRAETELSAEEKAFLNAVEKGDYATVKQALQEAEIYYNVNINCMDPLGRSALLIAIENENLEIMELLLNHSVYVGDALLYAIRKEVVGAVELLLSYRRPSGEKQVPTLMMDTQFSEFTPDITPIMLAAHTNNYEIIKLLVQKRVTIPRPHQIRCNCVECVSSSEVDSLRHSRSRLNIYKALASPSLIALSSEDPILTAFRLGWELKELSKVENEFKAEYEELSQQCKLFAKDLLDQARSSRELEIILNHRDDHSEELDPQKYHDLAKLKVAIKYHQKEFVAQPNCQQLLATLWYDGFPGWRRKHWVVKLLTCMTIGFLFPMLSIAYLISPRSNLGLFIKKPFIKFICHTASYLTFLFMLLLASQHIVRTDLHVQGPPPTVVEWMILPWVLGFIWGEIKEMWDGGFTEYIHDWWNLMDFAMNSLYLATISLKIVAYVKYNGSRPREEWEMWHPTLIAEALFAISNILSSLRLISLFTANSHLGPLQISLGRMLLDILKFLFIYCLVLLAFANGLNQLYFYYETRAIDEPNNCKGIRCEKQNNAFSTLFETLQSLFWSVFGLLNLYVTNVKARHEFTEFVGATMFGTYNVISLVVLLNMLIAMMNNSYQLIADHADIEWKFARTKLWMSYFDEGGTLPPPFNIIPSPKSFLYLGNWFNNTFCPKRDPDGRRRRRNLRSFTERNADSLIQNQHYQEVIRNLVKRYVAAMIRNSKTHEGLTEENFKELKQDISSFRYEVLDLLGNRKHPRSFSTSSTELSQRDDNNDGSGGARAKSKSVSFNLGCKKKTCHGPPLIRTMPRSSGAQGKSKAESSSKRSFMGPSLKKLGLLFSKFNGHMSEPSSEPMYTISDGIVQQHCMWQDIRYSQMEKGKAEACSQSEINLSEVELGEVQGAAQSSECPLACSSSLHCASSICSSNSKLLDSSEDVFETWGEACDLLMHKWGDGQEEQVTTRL
Assay: TRPC5 automated patch clamp assay (Qpatch), current block after rosiglitazone stimulation
Format: cell-based
Details: HEK293 cells overexpressing TRPC5
Procedure: HEK 293 cells expressing human TRPC5 were harvested, re-suspended in serum free medium, and added to the automated platform and used within 2-3 hours. Internal and external physiological solutions were freshly prepared prior to the assay. The external solution contained: 145 mM NaCl, 4 mM KCl, 2 mM CaCl2), 1 mM MgCl2, 10 mM HEPES, 10 mM glucose, pH 7.4 with NaOH and 300 mOsm/L. The internal solution contained 120 mM L-aspartic acid, 120 mM CsOH·H2O, 20 mM CsCl, 2 mM MgCl2, 8.8 mM CaCl2), 10 mM EGTA, 10 mM HEPES, 10 mM Glucose, 0.1 mM GTP and 2 mM Na2ATP; pH 7.2 with CsOH and 290 mOsm/L. The free internal Ca2+ concentration was buffered to 1 μM.
The automated electrophysiological platform QPatch 16 from Sophion (Denmark) was used to carry out the compounds profiling. The series resistance and quality of seals were continuously monitored during the experiments. Data was analyzed using Sophion QPatch assay software 5.6 (Odense). IC50 values were calculated using a least squares regression algorithm (Hill equation).
To monitor the ion currents, a voltage ramp from −100 mV to +100 mV, over 300 ms, was applied every 10 seconds, from a holding potential of −60 mV.
After recording for a minimum of 60 seconds control period, Rosiglitazone (30 uM), was applied to activate the channel.

[1] = Table 5, rosiglitazone stimulation, 80 mV, read-out: TRPC5_QP_ XC50_80
[2] = Table 5, rosiglitazone stimulation, 100 mV, read-out: TRPC5_QP_ XC50_100

Structure (SMILES) | IC50 [1] [µM] | IC50 [2] [µM] | IC50 (Table 6, read-out: TRPC5-QPatch IC50) [µM] | IC50 (rosiglitazone stimulation, 80 mV, read-out: TRPC5_QP XC50_80) [µM] | IC50 (rosiglitazone stimulation, 100 mV, read-out: TRPC5_QP XC50_100) [µM]
O=C1N(Cc2ccccc2C(F)(F)F)CCC12CCN(c1cn[nH]c(=O)c1Br)CC2 | 10 to 500 | 10 to 500 |  |  | 
Cc1cc(F)ccc1CN1CCN(c2c(Br)n[nH]c(=O)c2Cl)CC1 | 10 to 500 | 10 to 500 |  |  | 
O=C1CN(c2cn[nH]c(=O)c2Cl)CCN1CC1CCC(F)(F)CC1 | 5 to 10 | 5 to 10 |  |  | 
Cc1n[nH]c(=O)c(Cl)c1N1CCN(Cc2ccc(F)cc2C(F)(F)F)C(=O)C1 | 5 to 10 | 5 to 10 |  |  | 
O=C1CN(c2c(Cl)cn[nH]c2=O)CCN1Cc1ccc(F)cc1F | 10 to 500 | 10 to 500 |  |  | 
Cc1ncccc1CN1CCN(c2cn[nH]c(=O)c2Cl)CC1=O | 10 to 500 | 10 to 500 |  |  | 
O=C1CN(c2cn[nH]c(=O)c2Cl)CCN1Cc1ccc(F)cc1 | 5 to 10 | 5 to 10 |  |  | 
O=C1CN(c2c(Cl)cn[nH]c2=O)CCN1Cc1ccccc1OC(F)(F)F | 10 to 500 | 10 to 500 |  |  | 
Cc1cc(F)ccc1CN1CCN(c2ccn[nH]c2=O)CC1 | 10 to 500 | 10 to 500 |  |  | 
CC[C@@H]1CN(Cc2ccc(F)cc2C)CCN1c1cn[nH]c(=O)c1Cl | 10 to 500 | 10 to 500 |  |  | 
CCCOc1n[nH]c(=O)cc1N1CCN(Cc2ccc(F)cc2C)CC1 | 10 to 500 | 10 to 500 |  |  | 
Cc1ccc(CN2CCN(c3cn[nH]c(=O)c3Cl)CC2=O)cc1 | 5 to 10 | 5 to 10 |  |  | 
Cc1cc(F)ccc1CN1CCN(c2cc(=O)[nH]nc2-c2ccccc2)CC1 | 1 to 5 | 1 to 5 |  |  | 
CC(c1ccccc1)n1cnc2c1CCN(c1cn[nH]c(=O)c1Cl)C2 (stereo not shown) | 1 to 5 | 1 to 5 |  |  | 
O=C1CN(c2cn[nH]c(=O)c2Cl)CCN1Cc1cccnc1Oc1ccccc1 | 5 to 10 | 5 to 10 |  |  | 
CC[C@@H](c1ccccc1)N1CCN(c2cn[nH]c(=O)c2Cl)CC1 | 1 to 5 | 1 to 5 |  |  | 

Structure (SMILES) | IC50 [1] [µM] | IC50 [2] [µM] | IC50 (Table 6, read-out: TRPC5-QPatch IC50) [µM] | IC50 (rosiglitazone stimulation, 80 mV, read-out: TRPC5_QP XC50_80) [µM] | IC50 (rosiglitazone stimulation, 100 mV, read-out: TRPC5_QP XC50_100) [µM]
C=Cc1n[nH]c(=O)c(Cl)c1N1CCN(Cc2ccc(F)cc2C)CC1 | 10 to 500 | 10 to 500 |  |  | 
Cc1cc(F)ccc1CN1CCN(c2cc(=O)[nH]nc2C)CC1=O | 10 to 500 | 10 to 500 |  |  | 
O=C1CN(c2cn[nH]c(=O)c2Cl)CCN1C1(c2ccccc2)CC1 | 1 to 5 | 1 to 5 |  |  | 
CC[C@H](c1ccccc1)N1CCN(c2cn[nH]c(=O)c2Cl)CC1 | 1 to 5 | 1 to 5 |  |  | 
Cc1ccccc1Cn1cnc2c1CN(c1cn[nH]c(=O)c1Cl)CC2 | 10 to 500 | 10 to 500 |  |  | 
O=c1[nH]ncc(N2CCc3ncn(Cc4ccccc4)c3C2)c1Cl | 10 to 500 | 10 to 500 |  |  | 
CS(=O)(=O)c1ccccc1CN1CCN(c2cn[nH]c(=O)c2Cl)CC1 | 5 to 10 | 5 to 10 |  |  | 
CCc1cn[nH]c(=O)c1N1CCN(Cc2ccc(F)cc2C)CC1 | 1 to 5 | 1 to 5 |  |  | 
COc1cn[nH]c(=O)c1N1CCN(Cc2ccc(F)cc2C)CC1 | 1 to 5 | 1 to 5 |  |  | 
Cc1cc(F)ccc1CN1CCN(c2c(C)cn[nH]c2=O)CC1 | 1 to 5 | 1 to 5 |  |  | 
CS(=O)(=O)c1ccc(CN2CCN(c3cn[nH]c(=O)c3Cl)CC2=O)cc1 | 10 to 500 | 10 to 500 |  |  | 
O=c1[nH]ncc(N2CCN(Cc3cccnc3Oc3ccccc3)CC2)c1Cl | 5 to 10 | 5 to 10 |  |  | 
O=C1CN(c2cn[nH]c(=O)c2Cl)CCN1Cc1ccc(C2CC2)cc1 | 10 to 500 | 10 to 500 |  |  | 
O=c1[nH]ncc(N2CCc3c(ncn3-c3cccnc3C(F)(F)F)C2)c1Cl |  |  | 1 to 5 |  | 
Cc1ccccc1CN1CCN(c2cn[nH]c(=O)c2Cl)CC1=O [drawing 631] |  |  |  | 1e-05 to 1 | 1e-05 to 1
